Common to all, as to assay: inhibition of tumour cell growth, NCI panel, 48 h
For experiment [1], the system named is HCT-116 colon.
Experiment [2] deals with HCT-15 colon.
For experiment [3], the system named is NCI-H23 lung.
Experiment [4] relates to TK-10 renal.
Experiment [5] relates to COLO 205 colon.
For experiment [6], the system named is HT29 colon.
Experiment [7] has as its system M14 melanoma.
For experiment [8], the system named is CAKI-1 renal.
Experiment [9] has as its system MDA-N.
Experiment [10] relates to A498 renal.

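Test compounds were applied to cells in 96-well plates for 48 hours at 5 doses. GI50 marks 50% less growth. At the TGI there is no net growth.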 Some results are limits rather than exact numbers.

Regarding `CCN(CCCOc1ccccc1)CCN(CC)CCCOc1ccccc1`, the TGI in experiment [1] was over 100 µM; in [2], 30 µM; in experiment [3], 40.6 µM; in experiment [4], 27.1 µM; in experiment [5], 24.5 µM; in experiment [6], 27.4 µM. Moreover, the figures for the TGI in [7] and in experiment [8] were 34.6 µM and 34 µM, respectively.
Regarding `C=CCn1c(=O)c(C)cn(COCCO)c1=O`, the TGI in experiment [9], in [3], in experiment [4], in [5], in [6] and in [7] was over 100 µM each time. Also, the TGI in [8] was over 100 µM.
`COc1cc2c(c(O)c1O)C(=O)C1CCC(=O)N1C2c1cccc2ccccc12` (stereo unspecified): the TGI in experiment [1], in experiment [9], in [2], in experiment [3], in experiment [5] and in [6] was over 50 µM in each case. Moreover, the TGI in experiment [10] and in [7] was over 50 µM in each case.
Regarding `O=S1(=O)c2ccccc2Oc2ccc(C(/C=N/O)=N/O)cc21`, the TGI in experiment [1] was over 100 µM; in experiment [2], over 100 µM; in [4] it was 30.8 µM; in [5], over 100 µM; in [6], over 100 µM; in [7], over 100 µM. This molecule also displayed a TGI in [8] of 42.2 µM.
`Cc1cc([NH-])c([NH-])cc1C.[Cl][Pt+2][Cl]`: the GI50 in [1] is 14.2 µM; in experiment [2], 10900 nM; in experiment [3], 14.2 µM; in experiment [5], 14.8 µM; in experiment [6] it was 16600 nM; in [10] it was 33400 nM. Besides, the GI50 in experiment [8] was 12 µM. Also, the TGI was 32.9 µM in [1]; 32.3 µM in experiment [2]; 37 µM in experiment [3]; 34.9 µM in experiment [5]; 40 µM in [6]; over 87.6 µM in experiment [10]. In [8], this molecule had a TGI of 27.6 µM.
For the molecule `CCCCN(CCCC)Cc1cc(Nc2ccnc3cc(Cl)ccc23)ccc1O`, the GI50 in [3] is 8.23 µM; in experiment [4] it was 2.62 µM; in [5], 6.68 µM; in [6] it was 491 nM. The TGI was over 100 µM in [3], 26.4 µM in experiment [4], over 100 µM in experiment [5] and over 100 µM in experiment [6].
As for `O=C1[C@H](O)[C@@H]2C(O)O[C@H]3[C@@H]2N1C[C@H]3[Si](c1ccccc1)(c1ccccc1)c1ccccc1` (stereo partly specified), the TGI in experiment [1], in experiment [2], in experiment [3], in experiment [4], in experiment [5] and in experiment [6] was over 100 µM throughout. Moreover, the TGI in experiment [10], in experiment [7] and in experiment [8] was over 100 µM throughout.
For the molecule `COC(=O)C1(NC(=O)C(CC(=O)OCc2ccccc2)NC(=O)OCc2ccccc2)CCCCCC1` (stereo unspecified), the TGI in [1] was over 100 µM; in experiment [9] it was 61.4 µM; in experiment [2], over 100 µM; in experiment [3], over 100 µM; in experiment [4], over 100 µM; in [5], 47.3 µM. For the same molecule, the TGI in [6] was 50.7 µM; in experiment [7], over 100 µM; in [8], 48.5 µM.
`Nc1n(CC(=O)c2ccccc2)nc2sc(-c3ccccc3)n[n+]12`: the TGI in experiment [2] is over 100 µM; in experiment [3], 59.5 µM; in experiment [4], over 100 µM; in experiment [5], 47 µM; in [6] it was 51.3 µM; in [10], 86.9 µM. In addition, the TGI in [7] was over 100 µM; in experiment [8], 91.7 µM.
Turning to `Cc1ccc(C)c(NC(=O)C(=O)C(C(=O)c2ccc3ccccc3c2)C2OC(=O)c3ccccc32)c1` (stereo unspecified), the TGI in experiment [1] is 24.9 µM; in [2], 44.8 µM; in [3], 54.8 µM; in experiment [4], 64.6 µM; in experiment [5] it was 32.1 µM; in experiment [6], over 100 µM. The TGI in [10] was found to be 47.4 µM; in experiment [7], 28.8 µM; in experiment [8], 52.6 µM.
Turning to `CCCCCOc1ccc(C=Nc2ccc(CCc3ccc(N=Cc4ccc(OCCCCC)cc4)cc3)cc2)cc1`, the TGI in [1], in [2], in experiment [3], in experiment [5], in experiment [6] and in experiment [10] was over 100 µM each time.
For `O=c1[nH]c2nc3ccccc3c(=O)n2/c1=C/c1ccc(Cl)cc1`, the TGI in [1] was over 100 µM; in experiment [9] it was 59.5 µM; in [2] it was over 100 µM; in [3], over 100 µM; in [4] it was over 100 µM; in experiment [5], over 100 µM. In addition, the TGI in experiment [7] and in experiment [8] was over 100 µM each time.
For `C[C@@]1(O)C2CC3CC1(c1ccccc1)CC(/C3=N/O)/C2=N\O` (stereo partly specified), the TGI in experiment [1], in experiment [2], in experiment [3], in experiment [5], in [6] and in experiment [10] was over 100 µM each time. For the same molecule, the TGI in [7] and in [8] was over 100 µM throughout.
Regarding `O=C(Nc1ccc(N2C(=O)CSC2c2ccccc2O)cc1)c1ccc(N2C(=O)CSC2c2ccccc2O)cc1` (stereo unspecified), the TGI in experiment [1], in experiment [9], in experiment [2], in experiment [3], in experiment [4] and in [5] was over 100 µM in each case. Also, the figures for the TGI in [6], in [7] and in experiment [8] were over 100 µM, 61.3 µM and over 100 µM, respectively.
In the case of `Cn1c(=O)c2[nH]c(N/N=N/c3nncs3)nc2n(C)c1=O`, the TGI in experiment [1], in experiment [2], in experiment [3], in experiment [4], in experiment [5] and in experiment [6] was over 100 µM in each case. Further, the TGI in experiment [10], in [7] and in experiment [8] was over 100 µM each time.
`COC(=O)[C@H]1C=NN[C@@H]1C(=O)N1[C@H]2CC3CC[C@@]2(CS1(=O)=O)C3(C)C`: the TGI in experiment [1], in experiment [2], in experiment [3], in experiment [4], in experiment [5] and in [10] was over 100 µM in each case. Also, the TGI in experiment [7] and in experiment [8] was over 100 µM in each case.
Turning to `CN1CCC(CNc2cc(C3(C(=O)Nc4cc(C(=O)Nc5ccc(Cl)c(C(F)(F)F)c5)ccc4F)CC3)ncn2)CC1`, the GI50 in experiment [2] is 1600 nM; in [3], 1.94 µM; in [4] it was 3.89 µM; in [6], 1730 nM; in [10] it was 2520 nM. The TGI in experiment [2] came out at 4.19 µM; in experiment [3], 4.57 µM; in experiment [4], 12.8 µM; in experiment [6], 5.09 µM; in [10], 7.87 µM.
With `CC(C)(C)c1ccccc1N1C(=O)c2ccc3c4c(ccc(c24)C1=O)N(c1ccccc1C(C)(C)C)C3=O`, the TGI in experiment [1], in [9], in experiment [2], in experiment [3], in [5] and in experiment [6] was over 100 µM in each case. Also, the TGI in experiment [7] and in experiment [8] was over 100 µM throughout.
As to `O=C(/C=C(/C=C/c1ccc2[nH]ccc2c1)OB(F)F)/C=C/c1ccc2[nH]ccc2c1`, the GI50 in experiment [2] was 653 nM; in [4], 4.78 µM; in [6], 1470 nM; in experiment [10] it was 2610 nM; in experiment [8], 2.56 µM. Further, the TGI is 4.43 µM in experiment [2]; over 100 µM in experiment [4]; over 100 µM in experiment [6]; 6.71 µM in experiment [10]; 10.1 µM in experiment [8].
Consider `NC(=O)CNC(=O)[C@@H]1CC(OCCC(=O)O)CN1C(=O)C1CCCN1C(=O)OCc1ccccc1` (stereo partly specified), for which the TGI in [1], in experiment [9], in experiment [2], in [3], in experiment [4] and in experiment [5] was over 100 µM throughout. Besides, the TGI in experiment [6], in experiment [10] and in [7] was over 100 µM throughout.
With `c1ncn(C23C4C5C6C4C2C6C53)n1` (stereo unspecified), the TGI in experiment [1], in experiment [9], in experiment [2], in experiment [3], in [4] and in experiment [5] was over 100 µM throughout. Also, the TGI in [6] and in experiment [10] was over 100 µM throughout.
On to `CCOC(=O)C(C#N)(Cc1c[nH]c2ccccc12)NC(C)=O` (stereo unspecified), for which the TGI in experiment [1], in [2], in [3], in experiment [4], in experiment [5] and in experiment [6] was over 100 µM each time. Moreover, the TGI in experiment [7] and in experiment [8] was over 100 µM in each case.
For the molecule `CC(C)(C)c1ccc(OCCOc2ccc(C(C)(C)C)cc2N)c(N)c1`, the TGI in experiment [1], in experiment [2], in [3], in experiment [4], in [5] and in experiment [6] was over 100 µM throughout. The TGI in [10], in [7] and in experiment [8] was over 100 µM in each case.
Take `C[C@H](c1ccccc1)N1C(=O)[C@@H](O)[C@H]1[C@H](CO)OCc1ccccc1`: the TGI in [1], in experiment [9], in experiment [2], in experiment [3], in experiment [4] and in [5] was over 100 µM in each case. In addition, the TGI in [6], in experiment [10] and in [7] was over 100 µM throughout.
Take `CNC(C)(C)Cc1ccc(Cl)cc1`: the TGI in experiment [1], in experiment [3], in experiment [4], in [5], in experiment [6] and in experiment [10] was over 100 µM throughout. Moreover, the TGI in [7] and in experiment [8] was over 100 µM throughout.
Consider `c1ccc(-c2csc3c4ccccc4c4ccccc4[n+]23)cc1`, for which the TGI was 12.1 µM in experiment [1]; over 78.7 µM in [2]; 11.9 µM in [3]; 43.6 µM in experiment [4]; 7.73 µM in experiment [5]; 20.6 µM in experiment [6]. The figures for the TGI in [10], in [7] and in experiment [8] were 33.4 µM, 22 µM and over 36 µM, respectively.
Turning to `CCNCCNC(=O)c1ccc(I)cc1`, the TGI in experiment [2], in experiment [3], in experiment [4], in experiment [6], in experiment [10] and in [7] was over 100 µM throughout. In addition, the TGI in experiment [8] is over 100 µM.
Consider `C1=C(c2ccccc2)SC(N2CCCCC2)S1` (stereo unspecified), for which the TGI in experiment [1], in [2], in experiment [3], in experiment [4], in experiment [5] and in experiment [6] was over 100 µM in each case. Also, the TGI in experiment [10] and in experiment [7] was over 100 µM throughout.
For the molecule `CN(C)CCNc1ccc2c(=O)n(CCN(C)C)c(=O)n3c4ccc(O)cc4c(=O)c1c23`, the TGI in experiment [1] is 0.308 µM; in experiment [9] it was 0.26 µM; in experiment [2], 4.35 µM; in experiment [3], 0.186 µM; in experiment [4], 1.21 µM; in experiment [5], 0.099 µM. The TGI in experiment [6] is 0.229 µM; in [10], 0.515 µM; in [7], 1.86 µM.
`CCOC(=O)c1ccc(-n2[nH]nc(C(N)=O)c2=O)cc1`: the TGI in experiment [1], in experiment [9], in experiment [2], in [3], in [4] and in experiment [5] was over 100 µM in each case. In addition, the TGI in [6], in experiment [7] and in experiment [8] was over 100 µM in each case.

For the origin of these results see PubChem BioAssay (NCI).
